Laboratory results reported in patent publication US8471004B2, “Bicyclic compounds” (Hoffman-La Roche Inc., priority 2009, dated 2013).

Molecular target: T1, human chemokine receptor 2 isoform B (Homo sapiens, UniProt P41597)
T1 construct: host or cells: CHOK1-CCR2B-A5 (CHO-K1)
T1 sequence (P41597 1-360 isoform P41597-2): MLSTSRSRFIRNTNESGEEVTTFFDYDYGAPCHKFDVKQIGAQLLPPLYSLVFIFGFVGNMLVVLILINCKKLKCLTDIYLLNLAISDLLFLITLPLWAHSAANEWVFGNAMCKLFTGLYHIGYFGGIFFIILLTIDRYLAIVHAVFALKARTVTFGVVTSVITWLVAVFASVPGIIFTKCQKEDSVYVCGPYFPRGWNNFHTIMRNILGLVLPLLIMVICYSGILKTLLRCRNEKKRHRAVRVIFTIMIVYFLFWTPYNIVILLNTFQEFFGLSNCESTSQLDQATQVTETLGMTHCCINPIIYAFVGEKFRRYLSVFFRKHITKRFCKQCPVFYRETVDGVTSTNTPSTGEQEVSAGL
Assay: Calcium mobilization assay (CHOK1-CCR2B-A5 cells, FLIPR, MCP-1 stimulated)
Type: cell-based
Details: Ca mobilisation assay for CCR2, antagonist activity, 50% inhibition of specific calcium increases after 20 nM MCP-1
Procedure: CHOK1-CCR2B-A5 cells (from Euroscreen) stably overexpressing the human chemokine receptor 2 isoform B were cultured in Nutrient Hams F12 medium supplemented with 5% FBS, 100 U/ml penicillin, 100 μg/ml streptomycin, 400 μg/ml G418 and 5 μg/ml puromycin.
For the assay cells were grown overnight in 384-well black clear flat bottom polystyrene plates (Costar) at 37° C. at 5% CO2. After washing with DMEM, 20 mM Hepes, 2.5 mM probenecid, 0.1% BSA (DMEM assay buffer) cells were loaded with 4 μM Fluo-4 in the same DMEM assay buffer for 2 hours at 30° C. Excess dye was removed and cells were washed with DMEM assay buffer. 384-well compound plates were prepared with DMEM assay buffer/0.5% DMSO with or without various concentrations of test compounds. Usually compounds were tested for agonist and antagonist activity.
Test compounds were added to the assay plate and agonist activity was monitored as fluorescence for 80 seconds with a FLIPR (488 nm excitation; 510-570 nm emission; Molecular Devices). After 20-30 min. of incubation at 30° C., 20 nM MCP-1 (R&D; Roche) was added and fluorescence was monitored again for 80 seconds. Increases in intracellular calcium are reported as maximum fluorescence after agonist exposure minus basal fluorescence before exposure. Antagonist activity is indicated as inhibitor concentration required for 50% inhibition of specific calcium increases.

Row | Structure (SMILES) | IC50 [nM]
1 | C[C@H]1C(=O)N2C(CN1C(=O)Nc1ccc(Cl)c(Cl)c1)OC[C@@H]2CCC(=O)N1CCC2(CC2)[C@H](O)C1 (stereo partly drawn) [Example 23, (3S,6S)-3-[3-((S)-4-Hydroxy-6-aza-spiro[2.5]oct-6-yl)-3-oxo-propyl]-6-methyl-5-oxo-hexahydro-oxazolo[3,2-a]pyrazine-7-carboxylic acid (3,4-dichloro-phenyl)-amide] | 14.4
2 | C[C@H]1C(=O)N2[C@@H](CCC(=O)N3CCC4(CC4)[C@H](O)C3)CO[C@@H]2CN1C(=O)Nc1ccc(C(F)(F)F)c(Cl)c1 [Example 24, (3S,6S,8aR)-3-[3-((S)-4-Hydroxy-6-aza-spiro[2.5]oct-6-yl)-3-oxo-propyl]-6-methyl-5-oxo-hexahydro-oxazolo[3,2-a]pyrazine-7-carboxylic acid (3-chloro-4-trifluoromethyl-phenyl)-amide] | 5.5
3 | C[C@H]1C(=O)N2[C@@H](CCC(=O)N3CCC4(CC4)[C@H](O)C3)CO[C@H]2CN1C(=O)Nc1ccc(C(F)(F)F)c(Cl)c1 [Example 25, (3S,6S,8aS)-3-[3-((S)-4-Hydroxy-6-aza-spiro[2.5]oct-6-yl)-3-oxo-propyl]-6-methyl-5-oxo-hexahydro-oxazolo[3,2-a]pyrazine-7-carboxylic acid (3-chloro-4-trifluoromethyl-phenyl)-amide] | 20
4 | C[C@H]1C(=O)N2[C@@H](CCC(=O)N3CCC4(CC4)[C@H](O)C3)CO[C@@H]2CN1C(=O)/C=C/c1ccc(F)c(Cl)c1 [Example 26, (3S,6S,8aR)-7-[(E)-3-(3-Chloro-4-fluoro-phenyl)-acryloyl]-3-[3-((S)-4-hydroxy-6-aza-spiro[2.5]oct-6-yl)-3-oxo-propyl]-6-methyl-hexahydro-oxazolo[3,2-a]pyrazin-5-one] | 61.8
5 | C[C@H]1C(=O)N2[C@@H](CCC(=O)N3CCC4(CC4)[C@H](O)C3)CO[C@H]2CN1C(=O)/C=C/c1ccc(F)c(Cl)c1 [Example 27, (3S,6S,8aS)-7-[(E)-3-(3-Chloro-4-fluoro-phenyl)-acryloyl]-3-[3-((S)-4-hydroxy-6-aza-spiro[2.5]oct-6-yl)-3-oxo-propyl]-6-methyl-hexahydro-oxazolo[3,2-a]pyrazin-5-one] | 49.4
6 | C[C@H]1C(=O)N2C(CN1C(=O)Nc1ccc(Cl)c(Cl)c1)OC[C@@H]2CC(=O)N1CCC2(CC2)[C@H](O)C1 (stereo partly drawn) [Example 29, (3S,6S)-3-[2-((S)-4-Hydroxy-6-aza-spiro[2.5]oct-6-yl)-2-oxo-ethyl]-6-methyl-5-oxo-hexahydro-oxazolo[3,2-a]pyrazine-7-carboxylic acid (3,4-dichloro-phenyl)-amide] | 774
7 | C[C@H]1C(=O)N2[C@@H](CCC(=O)N3CCC4(CC4)[C@H](O)C3)CO[C@@H]2CN1C(=O)Nc1ccc(Cl)c(Cl)c1 [Example 35, (3S,6S,8aR)-3-[3-((S)-4-Hydroxy-6-aza-spiro[2.5]oct-6-yl)-3-oxo-propyl]-6-methyl-5-oxo-hexahydro-oxazolo[3,2-a]pyrazine-7-carboxylic acid (3,4-dichloro-phenyl)-amide] | 5.7
8 | C[C@H]1C(=O)N2[C@@H](CCC(=O)N3CCC4(CC4)[C@H](O)C3)CO[C@H]2CN1C(=O)Nc1ccc(Cl)c(Cl)c1 [Example 36, (3S,6S,8aS)-3-[3-((S)-4-Hydroxy-6-aza-spiro[2.5]oct-6-yl)-3-oxo-propyl]-6-methyl-5-oxo-hexahydro-oxazolo[3,2-a]pyrazine-7-carboxylic acid (3,4-dichloro-phenyl)-amide] | 9.3
9 | C[C@H]1C(=O)N2[C@@H](CCC(=O)N3CCC4(CC4)[C@H](O)C3)COC2(C)CN1C(=O)Nc1ccc(C(F)(F)F)c(Cl)c1 (stereo partly drawn) [Example 37, (3S,6S)-3-[3-((S)-4-Hydroxy-6-aza-spiro[2.5]oct-6-yl)-3-oxo-propyl]-6,8a-dimethyl-5-oxo-hexahydro-oxazolo[3,2-a]pyrazine-7-carboxylic acid (3-chloro-4-trifluoromethyl-phenyl)-amide] | 360
10 | C[C@H]1C(=O)N2[C@H](CCN3CCC4(CC4)[C@H](O)C3)CCC[C@@H]2CN1C(=O)Nc1ccc(Cl)c(Cl)c1 [Example 39, (3S,6S,9aR)-6-[2-((S)-4-Hydroxy-6-aza-spiro[2.5]oct-6-yl)-ethyl]-3-methyl-4-oxo-octahydro-pyrido[1,2-a]pyrazine-2-carboxylic acid (3,4-dichloro-phenyl)-amide] | 135
11 | C[C@H]1C(=O)N2[C@H](CCN3CCC4(CC4)[C@H](O)C3)COC[C@@H]2CN1C(=O)Nc1ccc(Cl)c(Cl)c1 [Example 40, (4R,7S,9aS)-4-[2-((S)-4-Hydroxy-6-aza-spiro[2.5]oct-6-yl)-ethyl]-7-methyl-6-oxo-hexahydro-pyrazino[2,1-c][1,4]oxazine-8-carboxylic acid (3,4-dichloro-phenyl)-amide] | 340
12 | C[C@H]1C(=O)N2[C@@H](CCC(=O)N3CCC4(CC4)[C@H](O)C3)CC[C@H]2CN1C(=O)Nc1ccc(Cl)c(Cl)c1 [Example 42, (3S,6R,8aS)-6-[3-((S)-4-Hydroxy-6-aza-spiro[2.5]oct-6-yl)-3-oxo-propyl]-3-methyl-4-oxo-hexahydro-pyrrolo[1,2-a]pyrazine-2-carboxylic acid (3,4-dichloro-phenyl)-amide] | 40.4
13 | C[C@H]1C(=O)N2[C@@H](CCC(=O)N3CCC4(CC4)[C@H](O)C3)CC[C@H]2CN1C(=O)Nc1ccc(C(F)(F)F)c(Cl)c1 [Example 43, (3S,6R,8aS)-6-[3-((S)-4-Hydroxy-6-aza-spiro[2.5]oct-6-yl)-3-oxo-propyl]-3-methyl-4-oxo-hexahydro-pyrrolo[1,2-a]pyrazine-2-carboxylic acid (3-chloro-4-trifluoromethyl-phenyl)-amide] | 20.5
14 | C[C@H]1C(=O)N2[C@@H](CCCN3CC(F)(F)C(F)(F)C3)CC[C@H]2CN1C(=O)Nc1ccc(Cl)c(Cl)c1 [Example 44, (3S,6S,8aS)-3-Methyl-4-oxo-6-[3-(3,3,4,4-tetrafluoro-pyrrolidin-1-yl)-propyl]-hexahydro-pyrrolo[1,2-a]pyrazine-2-carboxylic acid (3,4-dichloro-phenyl)-amide] | 473

Compounds with a lower IC50, results first:

Row | IC50 [nM] | Structure (SMILES)
15 | 3.7 | C[C@H]1C(=O)N2C(CN1C(=O)Nc1ccc(Cl)c(Cl)c1)OCCC[C@H]2CN1CCC2(CC2)[C@H](O)C1 (stereo partly drawn) [Example 28, (3S,5S)-5-((S)-4-Hydroxy-6-aza-spiro[2.5]oct-6-ylmethyl)-3-methyl-4-oxo-octahydro-9-oxa-2,4a-diaza-benzocycloheptene-2-carboxylic acid (3,4-dichloro-phenyl)-amide]
16 | 3.3 | C[C@H]1C(=O)N2[C@@H](CCCN3CCC4(CC4)[C@H](O)C3)CC[C@H]2CN1C(=O)Nc1ccc(Cl)c(Cl)c1 [Example 41, (3S,6S,8aS)-6-[3-((S)-4-Hydroxy-6-aza-spiro[2.5]oct-6-yl)-propyl]-3-methyl-4-oxo-hexahydro-pyrrolo[1,2-a]pyrazine-2-carboxylic acid (3,4-dichloro-phenyl)-amide]
17 | 2.7 | C[C@H]1C(=O)N2[C@@H](CCN3CCC4(CC4)[C@H](O)C3)CC[C@H]2CN1C(=O)Nc1ccc(Cl)c(Cl)c1 [Example 33, (3S,6R,8aS)-6-[2-((S)-4-Hydroxy-6-aza-spiro[2.5]oct-6-yl)-ethyl]-3-methyl-4-oxo-hexahydro-pyrrolo[1,2-a]pyrazine-2-carboxylic acid (3,4-dichloro-phenyl)-amide]
18 | 2.1 | C[C@H]1C(=O)N2[C@@H](CCN3CCC4(CC4)[C@H](O)C3)COC[C@H]2CN1C(=O)Nc1ccc(C(F)(F)F)c(Cl)c1 [Example 32, (4S,7S,9aR)-4-[2-((S)-4-Hydroxy-6-aza-spiro[2.5]oct-6-yl)-ethyl]-7-methyl-6-oxo-hexahydro-pyrazino[2,1-c][1,4]oxazine-8-carboxylic acid (3-chloro-4-trifluoromethyl-phenyl)-amide]
19 | 1.9 | C[C@H]1C(=O)N2[C@@H](CCN3CCC4(CC4)[C@H](O)C3)COC[C@H]2CN1C(=O)Nc1ccc(Cl)c(Cl)c1 [Example 31, (4S,7S,9aR)-4-[2-((S)-4-Hydroxy-6-aza-spiro[2.5]oct-6-yl)-ethyl]-7-methyl-6-oxo-hexahydro-pyrazino[2,1-c][1,4]oxazine-8-carboxylic acid (3,4-dichloro-phenyl)-amide]
20 | 1.5 | C[C@H]1C(=O)N2C(CN1C(=O)Nc1ccc(Cl)c(Cl)c1)OCC[C@H]2CN1CCC2(CC2)[C@H](O)C1 (stereo partly drawn) [Example 30, (4S,7S)-4-((S)-4-Hydroxy-6-aza-spiro[2.5]oct-6-ylmethyl)-7-methyl-6-oxo-hexahydro-pyrazino[2,1-b][1,3]oxazine-8-carboxylic acid (3,4-dichloro-phenyl)-amide]
